Laboratory results as given in patent US4379780A, “17 α-Dihydroequilin hapten and assay method” (American Home Products Corporation, priority 1980, dated 1983).

What was measured:
[1] = tested on: anti-17α-dihydroequilin serum; assay: Cross-reactivity of steroids with the anti-17α-dihydroequilin serum (radioimmunoassay); format: binding; conditions: selected rabbit anti-17α-dihydroequilin serum; [2,4-3H]-17α-dihydroequilin tracer
Protocol: For the assay procedure, a standard was prepared from a stock solution of unlabeled steroid in absolute ethanol (100 ng/ml). A working standard solution containing 1 ng/ml of unlabeled steroid was prepared in sodium phosphate buffer (0.1 M, pH 7, 0.9% NaCl). The labeled [2,4-^3 H]-17α-dihydroequilin solution was prepared in the assay buffer at a concentration of 100 pg/ml. The antiserum was prepared in BSA-assay buffer (1 g BSA/1000 ml sodium phosphate buffer) at a concentraton of one-fifth of the final working dilutions.
The standard curve was established by preparing duplicate 3 ml centrifuge tubes containing 0, 50, 100, 250, 500, 1000, and 2000 pg of the steroid in a total volume of 0.5 ml assay buffer. The sample tubes were prepared in duplicate with hydrolyzed plasma extract (0.1 ml) and assay buffer (0.4 ml) in a total volume of 0.5 ml. To all standard and sample tubes antibody (0.25 ml) and labeled steroid (0.5 ml) were added. These were mixed and allowed to incubate at 4° C. for 18 hr. After addition of 0.2 ml gamma globulin dextran-coated charcoal (4 g charcoal, 0.4 g dextran, 0.8 g human gamma globulin, 200 ml deionized water), each tube was again mixed and placed in a cold room (4° C.) for 20 min. After centrifugation at 2,500 rev./min for 6 min, 0.5 ml of each supernatant was aliquoted into a counting vial. Then 15 ml of a scintillation medium [(4 g of 2,5-diphenyloxazole (PPO), 50 mg of 1,4-di-2-(5-phenyloxazoyl)benzene (dimethyl-POPOP), 100 ml of the aqueous solubilizer Biosolv BBS-3 (Biosolv is a trademark of Beachman Instruments, Irvine, Calif., U.S.A.) and 1000 ml toluene] was added to each vial. The samples were counted to a relative standard error of less than 2% in a Packard model 3320 liquid scintillation counter, Packard Instrument Co., Downers Grove, Ill., U.S.A., see C. Matthijssen and J. W. Goldzieher, Analyt. Biochem., 10, 401 (1965).
The titer was determined from the ability of antibody to bind a constant amount (50 pg) of the labeled steroid.

[2] = Oxidation of 17α-dihydroequilin to 17α-dihydroequilenin during formic acid hydrolysis (HPLC); format: physicochemical; conditions: 120 min
Protocol: Plasma (0.2 ml) and distilled water (0.7 ml) were added to a 16×125 mm tube and mixed. [6,7-^3 H]-Estrone-3-sulfate (0.1 ml, 2000 cpm, obtained from New England Nuclear Corp.), and [2,4-^3 H]-17α-dihydroequilin (0.1 ml, 2000 cpm) was then added to correct for recovery through the assay procedure, and the sample again mixed well and allowed to stand at room temperature for 30 min. Diethyl ether (2 ml) was added for extraction of the free compound. The extraction was repeated three times and the combined extracts washed with distilled water (1 ml) and the solvent removed by evaporation. The aqueous phase containing the conjugates was re-extracted with 2 ml of ethyl acetate-ethanol (4:1, v/v). The extraction was repeated two more times and the combined extracts were dried in a centrifuge tube (12 ml) under a stream of nitrogen. Absolute ethanol was added to those tubes which contained residual water and once again dried under nitrogen. The conjugate fraction was hydrolyzed with formic acid. […] The tube was tightly closed, vortexed, and sonified for 10 min before being placed in a 37° C. water bath for 2 hr. The hydrolyzed sample was taken to dryness, sodium phosphate buffer (1 ml) was added, and the solution was vortexed and allowed to stand at 20° C. for 10 min. The hydrolyzed free compound was extracted with diethyl ether (2 ml) three times and taken to dryness. […]

SMILES | 17α-Dihydroequilin Antibody (Percent Cross-Reactivity) [1] [%] | 17α-dihydroequilin oxidized to 17α-dihydroequilenin during hydrolysis with formic acid ([2]; 0.1% (w/v) ascorbic acid added before hydrolysis) | 17α-dihydroequilin oxidized to 17α-dihydroequilenin during hydrolysis with formic acid ([2]; without ascorbic acid)
C[C@]12CCC(=O)C=C1CC[C@@H]1[C@@H]2CC[C@]2(C)C(=O)CC[C@@H]12 [4-Androstene-3,17-dione] | < 0.10 | – | –
C[C@]12CC[C@@H]3c4ccc(O)cc4C=C[C@H]3[C@@H]1CCC2=O [6-Dehydroestrone] | < 0.10 | – | –
C[C@]12CCC3=C(CCc4cc(O)ccc43)[C@@H]1CCC2=O [8-Dehydroestrone] | < 0.10 | – | –
C[C@]12CCc3c(ccc4cc(O)ccc34)[C@@H]1CC[C@H]2O [17α-Dihydroequilenin] | < 0.10 | – | –
C[C@]12CC[C@H]3C(=CCc4cc(OS(=O)(=O)O)ccc43)[C@@H]1CC[C@H]2O [17α-Dihydroequilin 3-sulfate] | 9.04 | – | –
C[C@]12CC[C@H]3C(=CCc4cc(O)ccc43)[C@@H]1CC[C@H]2O [17α-Dihydroequilin, 1,3,5(10),7-estratetraene-3,17α-diol] | 100.0 | 2-3% | 13-16%
C[C@]12CC[C@@H]3c4ccc(OS(=O)(=O)O)cc4CC[C@H]3[C@@H]1CC[C@H]2O [17α-Estradiol 3-sulfate] | < 0.10 | – | –
C[C@]12CCc3c(ccc4cc(O)ccc34)[C@@H]1CC[C@@H]2O [17β-Dihydroequilenin] | < 0.10 | – | –
C[C@]12CC[C@H]3C(=CCc4cc(O)ccc43)[C@@H]1CC[C@@H]2O [17β-Dihydroequilin] | < 0.10 | – | –
C[C@]12CC[C@@H](O)C[C@@H]1CC[C@@H]1[C@@H]2CC[C@]2(C)C(=O)CC[C@@H]12 [Androsterone] | < 0.10 | – | –
C[C@]12CCC(=O)C=C1CC[C@@H]1[C@@H]2[C@@H](O)C[C@@]2(C)[C@H]1CC[C@]2(O)C(=O)CO [Cortisol] | < 0.10 | – | –
C[C@]12CC[C@H](O)CC1=CC[C@@H]1[C@@H]2CC[C@]2(C)C(=O)CC[C@@H]12 [Dehydroepiandrosterone] | < 0.10 | – | –
C[C@]12CCc3c(ccc4cc(O)ccc34)[C@@H]1CCC2=O [Equilenin] | 0.40 | – | –
C[C@]12CC[C@@H]3c4ccc(O)cc4C[C@@H](O)[C@]3(O)[C@@H]1CCC2=O [Equilin-7α,8α-glycol] | < 0.10 | – | –
C[C@]12CC[C@H]3C(=CCc4cc(O)ccc43)[C@@H]1CCC2=O [Equilin] | 0.7 | – | –
C[C@]12CC[C@@H]3c4ccc(O)cc4CC[C@H]3[C@@H]1CC[C@H]2O [Estradiol-17α] | < 0.10 | – | –
C[C@]12CC[C@@H]3c4ccc(O)cc4CC[C@H]3[C@@H]1CC[C@@H]2O [Estradiol-17β] | < 0.10 | – | –
C[C@]12CC[C@@H]3c4ccc(O)cc4CC[C@H]3[C@@H]1CCC2=O [Estrone] | < 0.10 | – | –
CC(=O)[C@H]1CC[C@H]2[C@@H]3CCC4=CC(=O)CC[C@]4(C)[C@H]3CC[C@]12C [Progesterone] | < 0.10 | – | –
C[C@]12CC[C@H]3[C@@H](CCC4=CC(=O)CC[C@@]43C)[C@@H]1CC[C@@H]2O [Testosterone] | < 0.10 | – | –
